Data on 22 molecules can be found in patent publication US20250163057A1, “DCN-1 MODULATING COMPOUNDS AND METHODS OF USE THEREOF” (Cellarity, Inc., priority 2023, published 2025).

The structures appear in SMILES notation. pIC50: −log10 of the molar value. Where two headings read alike, the source gives them in different places. Bounds are passed on as bounds.

Assay [1] deals with Cullin-3 (CUL3) neddylation. Description: AlphaLISA assay for Cullin-3 (CUL3) neddylation in TF 1 cells. Type of assay: cell-based. The note with it: 3 hours treatment. The gist of the method: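 Neddylated CUL3 was quantified by AlphaLISA in lysates of TF 1 cells exposed for 3 h to test compound in IMDM without supplements. Percent inhibition set between vehicle and 1 μM DI-1548 positive control; IC50 derived by Hill-equation fitting of dose-response curves.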

Assay [2] deals with DCN1 (DCUND1) protein PONY domain (Homo sapiens (Human), UniProt Q96GG9). Description: TR-FRET assay, DCN1 binding with FAM-labeled probe. The conditions noted are these: for IC50: TR FRET IC50 1 hr (nM). The gist of the method: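 First, the E. coli-derived PONY domain was biotinylated and paired with streptavidin Tb cryptate. Compounds in 0.1% DMSO were then added to DCN1 and FAM-probe (5 nM/20 nM, or 0.31 nM/900 nM total with 800 nM unlabelled) in TritonX, 200 mM NaCl buffer. Finally, TR-FRET ratios were recorded at 1, 5 and 24 hrs.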
In general terms: In TR-FRET formats the signal depends on donor and acceptor labels being close together.

The mark [3] stands for this setting: 24 hr after treatment with compound, read-out: TR FRET IC50 24 hr.
Where [4] appears, read: 1 hr after treatment with compound.
[5] abbreviates: read-out: TR FRET IC50 1 hr, 1 hr after treatment with compound.

Chain of DCN1 (DCUND1) protein PONY domain (Q96GG9 60-248): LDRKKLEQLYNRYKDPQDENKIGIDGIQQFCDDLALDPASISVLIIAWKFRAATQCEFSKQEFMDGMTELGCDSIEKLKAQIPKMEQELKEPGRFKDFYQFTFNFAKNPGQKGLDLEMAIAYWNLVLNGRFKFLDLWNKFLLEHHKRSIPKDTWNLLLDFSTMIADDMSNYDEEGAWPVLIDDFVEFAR

As usually defined, the pIC50 is −log10 of the IC50, conventionally taken in molar units. One may read the IC50 as the concentration that gives 50% inhibition. As for `CCN1C(=O)[C@H](NC(=O)c2cccc(C(F)(F)F)c2)[C@H](c2ccc(F)cc2)c2c(C(=O)N3CCC[C@H]3C#N)nn(-c3cccc(OCCN4CC5(COC5)C4)c3)c21` [Compound I-647], the pIC50 in assay [1] (Homo sapiens, TF-1, 3 h) was under 6.00; in assay [2] (setting [3]) it was 5.52 to 6.00. Further, the IC50 in assay [2] (setting [4]) lay within 1000 to 3000 nM.

As for `CCN1C(=O)[C@H](NC(=O)c2cccc(C(F)(F)F)c2)[C@@H](c2ccc(F)cc2)c2c(CN3C(=O)CC[C@H]3C#N)nn(-c3ccccc3)c21` [Compound I-596, N-((4S,5R)-3-(((S)-2-cyano-5-oxopyrrolidin-1-yl)methyl)-7-ethyl-4-(4-fluorophenyl)-6-oxo-1-phenyl-4,5,6,7-tetrahydro-1H-pyrazolo[3,4-b]pyridin-5-yl)-3-(trifluoromethyl)benzamide], the pIC50 in assay [1] (Homo sapiens, TF-1, 3 h) is under 6.00; in assay [2] (setting [3]) it was 5.52 to 6.00. The IC50 in assay [2] (setting [4]) fell in the range of 1000 to 3000 nM.

As for `CCN1C(=O)[C@H](NC(=O)c2cccc(C(F)(F)F)c2)C(C2CC2)c2c(C(=O)N3CCC[C@H]3C#N)nn(-c3ccccc3)c21` (stereo partly drawn) [Compound I-642], the pIC50 in assay [1] (Homo sapiens, TF-1, 3 h) was under 6.00; in assay [2] (setting [3]) it was 5.52 to 6.00. In addition, in assay [2] (setting [4]), the IC50 fell in the range of 1000 to 3000 nM.

With `CCCn1nc(C(=O)N(CC#N)C2CC2)c2c1N(CC)C(=O)[C@H](NC(=O)c1cccc(C(F)(F)F)c1)[C@@H]2C1CC1` [Compound I-455], the pIC50 in assay [1] (Homo sapiens, TF-1, 3 h) is under 6.00; in assay [2] (setting [3]), 5.52 to 6.00. Also, the IC50 in assay [2] (setting [4]) lay within 1000 to 3000 nM.

As for `CCN1C(=O)[C@@H](NC(=O)c2cccc(C(F)(F)F)c2F)[C@@H](C2CC2)c2c(C(=O)N3[C@H](C#N)C[C@H]4C[C@H]43)nn(C3CCOCC3)c21` [Compound I-514], the negative-log IC50 (pIC50) in assay [1] (Homo sapiens) is at least 7.00; in assay [2] (setting [3]), at least 6.70; in assay [2] (setting [5]), at least 6.70.

As for `CCN1C(=O)[C@@H](NC(=O)c2cccc(C(F)(F)F)c2)[C@@H](C2CCCC2)c2c(C(=O)N(CC#N)C3CC3)nn(C3CCOCC3)c21` [Compound I-478], the pIC50 was 6.00 to 7.00 in assay [1] (Homo sapiens, TF-1, 3 h) and at least 6.70 in assay [2] (setting [3]). Further, in assay [2] (setting [4]), the concentration for half-maximal inhibition (IC50) was in the range of 1000 to 3000 nM.

As for `CCN1C(=O)[C@@H](NC(=O)c2cccn(C3CC3)c2=O)[C@@H](C2CC2)c2c(C(=O)N3[C@H](C#N)C[C@H]4C[C@H]43)nn(C3CCOCC3)c21` [Compound I-624], the pIC50 in assay [1] was at least 7.00; in assay [2] (setting [3]), 6.00 to 6.70. Besides, in assay [2] (setting [4]), the IC50 lay within 200 to 1000 nM.

Turning to `CCN1C(=O)[C@@H](NC(=O)c2cccc(C(F)(F)F)c2)[C@@H](c2ccc(F)cc2)c2c([C@@H](CCC(O)CO)NC#N)nn(-c3ccccc3)c21` (stereo partly drawn) [Compound I-497], the negative logarithm of the IC50 (pIC50) in assay [1] (Homo sapiens, TF-1, 3 h) was at least 7.00; in assay [2] (setting [3]), at least 6.70; in assay [2] (setting [5]), at least 6.70.

With `CCN1C(=O)[C@H](NC(=O)c2cccc(C(F)(F)F)c2)[C@H](c2ccc(F)cc2)c2c(C(=O)N3[C@H](C#N)C[C@@H]4C[C@@H]43)nn(-c3ccccc3)c21` [Compound I-463], the pIC50 in assay [1] (Homo sapiens, TF-1, 3 h) is under 6.00; in assay [2] (setting [3]), 5.52 to 6.00. For the same molecule, in assay [2] (setting [4]), the IC50 is 1000 to 3000 nM.

For `CCN(CC#N)C(=O)c1nn(-c2ccccc2)c2c1[C@@H](c1ccc(F)cc1)[C@@H](NC(=O)c1cccc(C(F)(F)F)c1)C(=O)N2CC` (stereo in doubt) [Compound I-531], the pIC50 in assay [1] (Homo sapiens, TF-1, 3 h) was 6.00 to 7.00; in assay [2] (setting [3]), at least 6.70. Further, in assay [2] (setting [4]), the IC50 fell in the range of 1000 to 3000 nM.

`CCN1C(=O)[C@@H](NC(=O)c2cccc(C(F)(F)F)c2)[C@@H](c2ccc(F)cc2)c2c([C@@H](C)N(C#N)C(=O)OCCN3CCN(C)CC3)nn(-c3ccccc3)c21` [Compound I-536]: the pIC50 is 6.00 to 7.00 in assay [1] (Homo sapiens, TF-1, 3 h); at least 6.70 in assay [2] (setting [3]); at least 6.70 in assay [2] (setting [5]).

For `CCN1C(=O)[C@@H](NC(=O)c2ccc3ocnc3c2)[C@@H](C2CC2)c2c(C(=O)N3[C@H](C#N)C[C@H]4C[C@H]43)nn(C3CCOCC3)c21` [Compound I-601], the pIC50 in assay [1] (Homo sapiens, TF-1, 3 h) was 6.00 to 7.00; in assay [2] (setting [3]) it was 6.00 to 6.70. Moreover, in assay [2] (setting [4]), the IC50 was 1000 to 3000 nM.

Turning to `CCN1C(=O)[C@H](NC(=O)c2cccc(C(F)(F)F)c2)[C@H](c2ccc(F)cc2)c2c(C(=O)N(CC#N)CC(=O)OC)nn(-c3ccccc3)c21` (stereo in doubt) [Compound I-406], the pIC50 in assay [1] (Homo sapiens, TF-1, 3 h) is 6.00 to 7.00; in assay [2] (setting [3]) it was at least 6.70. In assay [2] (setting [4]), the IC50 lay in the range of 200 to 1000 nM.

As for `CCN1C(=O)[C@@H](NC(=O)c2ccc3c(c2)COC3)[C@@H](C2CC2)c2c(C(=O)N3[C@H](C#N)C[C@H]4C[C@H]43)nn(C3CCOCC3)c21` [Compound I-600], the pIC50 in assay [1] (Homo sapiens, TF-1, 3 h) was at least 7.00; in assay [2] (setting [3]) it was at least 6.70. In assay [2] (setting [4]), the IC50 is 200 to 1000 nM.

Consider `CCN1C(=O)[C@H](NC(=O)c2cccc(C(F)(F)F)c2)[C@H](c2ccc(F)cc2)c2c(C(=O)N3CC[C@@H]3C#N)nn(-c3ccccc3)c21` [Compound I-457], for which the pIC50 in assay [1] (Homo sapiens, TF-1, 3 h) was under 6.00; in assay [2] (setting [3]) it was 5.52 to 6.00. In assay [2] (setting [4]), the IC50 lay in the range of 1000 to 3000 nM.

With `CCN1C(=O)[C@@H](NC(=O)c2cccc(C(F)(F)F)c2)[C@@H](c2ccc(F)cc2)c2c(CN(C)C/C=C/C(=O)OC(C)(C)C)nn(-c3ccccc3)c21` [Compound I-604, tert-butyl (E)-4-((((4S,5S)-7-ethyl-4-(4-fluorophenyl)-6-oxo-1-phenyl-5-(3-(trifluoromethyl)benzamido)-4,5,6,7-tetrahydro-1H-pyrazolo[3,4-b]pyridin-3-yl)methyl)(methyl)amino)but-2-enoate], the pIC50 in assay [1] (Homo sapiens, TF-1, 3 h) is under 6.00; in assay [2] (setting [3]), 5.52 to 6.00. Also, in assay [2] (setting [4]), the IC50 fell in the range of 1000 to 3000 nM.

Turning to `CCN1C(=O)[C@@H](NC(=O)c2cccc(C(F)(F)F)c2)[C@@H](C2CC2)c2c(C(=O)N(CC#N)C3CC3)nn(C3CCOCC3)c21` [Compound I-682], the pIC50 in assay [1] (Homo sapiens, TF-1, 3 h) is at least 7.00; in assay [2] (setting [3]), at least 6.70. For the same molecule, the half-maximal inhibitory concentration (IC50) in assay [2] (setting [4]) was in the range of 200 to 1000 nM.

On to `CCN1C(=O)[C@@H](NC(=O)c2cccc(C(F)(F)F)c2)[C@@H](c2ccc(F)cc2)c2c(NC(=O)C3=CCCN(C)C3)nn(-c3ccccc3)c21` (racemic) [Compound I-488], for which the pIC50 was at least 7.00 in assay [1] (Homo sapiens, TF-1, 3 h) and at least 6.70 in assay [2] (setting [3]). Further, the IC50 in assay [2] (setting [4]) lay within 200 to 1000 nM.

Consider `CCN1C(=O)[C@@H](NC(=O)c2cccc(C(F)(F)F)c2)[C@@H](C2CC2)c2c(C(=O)N(C)[C@@H](C#N)CCN(C)C3COC3)nn(C3CCOCC3)c21` [Compound I-664], for which the pIC50 was 6.00 to 7.00 in assay [1] (Homo sapiens, TF-1, 3 h) and 6.00 to 6.70 in assay [2] (setting [3]). In addition, the IC50 in assay [2] (setting [4]) is 200 to 1000 nM.

With `CN1C(=O)[C@H](NC(=O)c2cccc(C(F)(F)F)c2)[C@H](C2CC2)c2c(C(=O)N3[C@H](C#N)C[C@H]4C[C@H]43)nn(C3CCOCC3)c21` (relative stereo) [Compound I-528, N-((4R*,5R*)-3-((1 R,3S,5R)-3-cyano-2-azabicyclo[3.1.0]hexane-2-carbonyl)-4-cyclopropyl-7-methyl-6-oxo-1-(tetrahydro-2H-pyran-4-yl)-4,5,6,7-tetrahydro-1H-pyrazolo [3,4-b]pyridin-5-yl)-3-(trifluoromethyl)benzamide], the pIC50 was under 6.00 in assay [1] (Homo sapiens, TF-1, 3 h) and 5.52 to 6.00 in assay [2] (setting [3]). For the same molecule, the IC50 in assay [2] (setting [4]) lay in the range of 1000 to 3000 nM.

In the case of `CCN1C(=O)[C@@H](NC(=O)c2cccc(C(F)(F)F)c2)[C@@H](c2ccc(F)cc2)c2c(CCN(C#N)CCO)nn(-c3ccccc3)c21` [Compound I-538], the pIC50 is 6.00 to 7.00 in assay [1] (Homo sapiens, TF-1, 3 h) and at least 6.70 in assay [2] (setting [3]). Further, in assay [2] (setting [4]), the IC50 was in the range of 200 to 1000 nM.

Consider `C=C(CN1CC2CCC(C1)O2)C(=O)NCc1nn(-c2ccccc2)c2c1[C@H](c1ccc(F)cc1)[C@H](NC(=O)c1cccc(C(F)(F)F)c1)C(=O)N2CC` [Compound I-50], for which the pIC50 in assay [1] (Homo sapiens, TF-1, 3 h) was at least 7.00; in assay [2] (setting [3]), at least 6.70; in assay [2] (setting [5]) it was at least 6.70.
